# Target: T1, histamine H3 receptor (Homo sapiens, UniProt Q9Y5N1)
# T1 construct: expressed in transfected cells; host or cells: CHO K1 cells (pSwitch/pGene GeneSwitch system, mifepristone-induced), clone 3H3; membranes
# Experiment: Histamine H3 functional antagonist assay ([35S]-GTPγS SPA on membranes of H3 cells)
# Assay type: biochemical
# Conditions: membrane prepared from cultured H3 cells (CHO K1, human H3); histamine at EC80; averages of a number of experiments; read-out: functional pKi (fpKi), H3 functional antagonist assay (converted)
# From the text: A membrane preparation containing histamine H3 receptors may be prepared in accordance with the following procedures:
# (i) Generation of Histamine H3 Cell Line
# DNA encoding the human histamine H3 gene (Huvar, A. et al. (1999) Mol. Pharmacol. 55(6), 1101-1107) was cloned into a holding vector, pcDNA3.1 TOPO (InVitrogen) and its cDNA was isolated from this vector by restriction digestion of plasmid DNA with the enzymes BamH1 and Not-1 and ligated into the inducible expression vector pGene (InVitrogen) digested with the same enzymes. The GeneSwitch™ system (a system where in transgene expression is switched off in the absence of an inducer and switched on in the presence of an inducer) was performed as described in U.S. Pat. Nos. 5,364,791; 5,874,534; and 5,935,934. Ligated DNA was transformed into competent DH5α E. coli host bacterial cells and plated onto Luria Broth (LB) agar containing Zeocin™ (an antibiotic which allows the selection of cells expressing the sh ble gene which is present on pGene and pSwitch) at 50 μg ml^−1. Colonies containing the re-ligated plasmid were identified by restriction analysis. DNA for transfection into mammalian cells was prepared from 250 ml cultures of the host bacterium containing the pGeneH3 plasmid and isolated using a DNA preparation kit (Qiagen Midi-Prep) as per manufacturers guidelines (Qiagen). CHO K1 cells previously transfected with the pSwitch regulatory plasmid (InVitrogen) were seeded at 2×10e6 cells per T75 flask in Complete Medium, containing Hams F12 (GIBCOBRL, Life Technologies) medium supplemented with 10% v/v dialysed foetal bovine serum, L-glutamine, and hygromycin (100 μg ml^−1), 24 hours prior to use. Plasmid DNA was transfected into the cells using Lipofectamine plus according to the manufacturers guidelines (InVitrogen). 48 hours post transfection cells were placed into complete medium supplemented with 500 μg ml^−1 Zeocin™.
# 10-14 days post selection 10 nM Mifepristone (InVitrogen), was added to the culture medium to induce the expression of the receptor. 18 hours post induction cells were detached from the flask using ethylenediamine tetra-acetic acid (EDTA; 1:5000; InVitrogen), following several washes with phosphate buffered saline pH 7.4 and resuspended in Sorting Medium containing Minimum Essential Medium (MEM), without phenol red, and supplemented with Earles salts and 3% Foetal Clone II (Hyclone). Approximately 1×10e7 cells were examined for receptor expression by staining with a rabbit polyclonal antibody, 4a, raised against the N-terminal domain of the histamine H3 receptor, incubated on ice for 60 minutes, followed by two washes in sorting medium. Receptor bound antibody was detected by incubation of the cells for 60 minutes on ice with a goat anti rabbit antibody, conjugated with Alexa 488 fluorescence marker (Molecular Probes). Following two further washes with Sorting Medium, cells were filtered through a 50 μm Filcon™ (BD Biosciences) and then analysed on a FACS Vantage SE Flow Cytometer fitted with an Automatic Cell Deposition Unit. Control cells were non-induced cells treated in a similar manner. Positively stained cells were sorted as single cells into 96-well plates, containing Complete Medium containing 500 μg ml^−1 Zeocin™ and allowed to expand before reanalysis for receptor expression via antibody and ligand binding studies. One clone, 3H3, was selected for membrane preparation.
# (ii) Membrane Preparation from Cultured Cells
# All steps of the protocol are carried out at 4° C. and with pre-cooled reagents. The cell pellet is resuspended in 10 volumes of homogenisation buffer (50 mM N-2-hydroxyethylpiperazine-N′-2-ethanesulfonic acid (HEPES), 1 mM ethylenediamine tetra-acetic acid (EDTA), pH 7.4 with KOH, supplemented with 10e-6M leupeptin (acetyl-leucyl-leucyl-arginal; Sigma L2884), 25 μg/ml bacitracin (Sigma B0125), 1 mM phenylmethylsulfonyl fluoride (PMSF) and 2×10e-6M pepstain A (Sigma)). […]
# T1 sequence (Q9Y5N1 whole entry): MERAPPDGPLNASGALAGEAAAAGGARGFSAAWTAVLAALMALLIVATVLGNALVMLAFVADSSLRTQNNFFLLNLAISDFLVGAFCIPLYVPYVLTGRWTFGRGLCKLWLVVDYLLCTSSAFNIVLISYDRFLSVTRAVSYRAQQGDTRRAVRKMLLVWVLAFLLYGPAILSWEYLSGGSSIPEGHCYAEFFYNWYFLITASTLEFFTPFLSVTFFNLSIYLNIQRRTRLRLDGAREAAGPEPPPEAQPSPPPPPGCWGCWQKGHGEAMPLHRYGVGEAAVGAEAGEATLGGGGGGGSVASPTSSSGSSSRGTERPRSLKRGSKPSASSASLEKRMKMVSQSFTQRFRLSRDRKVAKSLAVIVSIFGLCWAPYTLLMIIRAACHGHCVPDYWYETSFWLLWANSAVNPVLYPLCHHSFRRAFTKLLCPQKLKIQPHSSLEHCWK
row,Ki,SMILES
1,< 3.16 nM,"O=C(NC1CCOCC1)c1ccc(Cc2ccc3c(c2)CCN(C2CCC2)CC3)cc1 [Example E50, 4-[(3-cyclobutyl-2,3,4,5-tetrahydro-1H-3-benzazepin-7-yl)methyl]-N-(tetrahydro-2H-pyran-4-yl)benzamide]"
2,< 3.16 nM,"CC(C)NC(=O)c1ccc(Cc2ccc3c(c2)CCN(C2CCC2)CC3)cc1 [Example E51, 4-[(3-cyclobutyl-2,3,4,5-tetrahydro-1H-3-benzazepin-7-yl)methyl]-N-(1-methylethyl)benzamide]"
3,< 3.16 nM,"CC(C)NC(=O)c1ccc(Cc2ccc3c(c2)CCN(C2CCC2)CC3)cn1 [Example E53, 5-[(3-cyclobutyl-2,3,4,5-tetrahydro-1H-3-benzazepin-7-yl)methyl]-N-(1-methylethyl)-2-pyridinecarboxamide]"
4,< 3.16 nM,"O=C(c1ccc(Cc2ccc3c(c2)CCN(C2CCC2)CC3)cn1)N1CCCC1 [Example E54, 3-cyclobutyl-7-{[6-(1-pyrrolidinylcarbonyl)-3-pyridinyl]methyl}-2,3,4,5-tetrahydro-1H-3-benzazepine]"
5,< 3.16 nM,"O=C(NC1CCOCC1)c1ccc(Cc2ccc3c(c2)CCN(C2CCC2)CC3)cn1 [Example E55, 5-[(3-cyclobutyl-2,3,4,5-tetrahydro-1H-3-benzazepin-7-yl)methyl]-N-(tetrahydro-2H-pyran-4-yl)-2-pyridinecarboxamide]"
6,< 3.16 nM,"N#Cc1ccc(NC(=O)c2ccc(Cc3ccc4c(c3)CCN(C3CCC3)CC4)cn2)cc1 [Example E56, N-(4-cyanophenyl)-5-[(3-cyclobutyl-2,3,4,5-tetrahydro-1H-3-benzazepin-7-yl)methyl]-2-pyridinecarboxamide]"
7,< 0.316 nM,"c1cc(-c2csnn2)ccc1Cc1ccc2c(c1)CCN(C1CCC1)CC2 [Example E57, 3-cyclobutyl-7-{[4-(1,2,3-thiadiazol-4-yl)phenyl]methyl}-2,3,4,5-tetrahydro-1H-3-benzazepine]"
8,< 3.16 nM,"O=c1nc(-c2ccc(Cc3ccc4c(c3)CCN(C3CCC3)CC4)cc2)[nH]o1 [Example E58, 3-{4-[(3-cyclobutyl-2,3,4,5-tetrahydro-1H-3-benzazepin-7-yl)methyl]Phenyl}-1,2,4-oxadiazol-5(2H)-one]"
9,< 0.316 nM,"c1cnn(-c2ccc(Cc3ccc4c(c3)CCN(C3CCC3)CC4)cc2)c1 [Example E59, 3-cyclobutyl-7-{[4-(1H-pyrazol-1-yl)phenyl]methyl}-2,3,4,5-tetrahydro-1H-3-benzazepine]"
10,< 0.316 nM,"c1ncn(-c2ccc(Cc3ccc4c(c3)CCN(C3CCC3)CC4)cc2)n1 [Example E60, 3-cyclobutyl-7-{[4-(1H-1,2,4-triazol-1-yl)phenyl]methyl}-2,3,4,5-tetrahydro-1H-3-benzazepine]"

# More lines, now with the values behind:
row,SMILES,Ki
1,"N#Cc1ccc(Cc2ccc3c(c2)CCN(C2CCC2)CC3)nc1 [Example E41, 6-[(3-cyclobutyl-2,3,4,5-tetrahydro-1H-3-benzazepin-7-yl)methyl]-3-pyridinecarbonitrile]",< 3.16 nM
2,"CNC(=O)c1ccc(Cc2ccc3c(c2)CCN(C2CCC2)CC3)nc1 [Example E42, 6-[(3-cyclobutyl-2,3,4,5-tetrahydro-1H-3-benzazepin-7-yl)methyl]-N-methyl-3-pyridinecarboxamide]",< 3.16 nM
3,"O=C(c1ccc(Cc2ccc3c(c2)CCN(C2CCC2)CC3)nc1)N1CCCC1 [Example E43, 3-cyclobutyl-7-{[5-(1-pyrrolidinylcarbonyl)-2-pyridinyl]methyl}-2,3,4,5-tetrahydro-1H-3-benzazepine]",< 3.16 nM
4,"NC(=O)c1ccc(Cc2ccc3c(c2)CCN(C2CCC2)CC3)nc1 [Example E44, 6-[(3-cyclobutyl-2,3,4,5-tetrahydro-1H-3-benzazepin-7-yl)methyl]-3-pyridinecarboxamide]",< 3.16 nM
5,"NC(=O)c1ccc(Cc2ccc3c(c2)CCN(C2CCC2)CC3)cc1 [Example E46, 4-[(3-cyclobutyl-2,3,4,5-tetrahydro-1H-3-benzazepin-7-yl)methyl]benzamide]",< 0.316 nM
6,"CCNC(=O)c1ccc(Cc2ccc3c(c2)CCN(C2CCC2)CC3)cc1 [Example E48, 4-[(3-cyclobutyl-2,3,4,5-tetrahydro-1H-3-benzazepin-7-yl)methyl]-N-ethylbenzamide]",< 3.16 nM
7,"O=C(c1ccc(Cc2ccc3c(c2)CCN(C2CCC2)CC3)cc1)N1CCCC1 [Example E49, 3-cyclobutyl-7-{[4-(1-pyrrolidinylcarbonyl)phenyl]methyl}-2,3,4,5-tetrahydro-1H-3-benzazepine]",< 3.16 nM

# — patent US20070208005A1, “TETRAHYDROBENZAZEPINES AS ANTAGONISTS AND/OR REVERSE AGONISTS OF THE HISTAMINE H3 RECEPTOR” (priority 2004, published 2007)
